# From patent US10844051B2, “Substituted oxazoles for the treatment of cancer” (THE ROYAL INSTITUTION FOR THE ADCANCEMENT OF …, priority 2015, dated 2020)
# “Also recorded” adds a separate entry of the source.
# What was measured:
# [1] = biological target: T1, human GATA3 (Homo sapiens, UniProt P23771); test: GATA3-dependent reporter assay in IHH cells; type: cell-based; details: 48 hours
# T1 construct: expressed in transfected cells; host or cells: IHH
# Procedure: The IHH cells were transiently transfected with empty vector (for the NT) or human GATA3-expressing plasmid as well as pRL-TK (internal control) and GATA-Luc reporter plasmids. Cells were exposed to DMSO vehicle or compounds for 48 hours. Experiments were done in triplicate.
# [2] = system: GATA family members (GATA1, GATA2, GATA3, GATA4); test: GATA1-, GATA2-, GATA3- and GATA4-dependent reporter assays in IHH cells; type: cell-based; details: CSS medium, 48 hours
# Procedure: In contrast, K7174 is not selective. GATA1-, GATA2-, GATA3- and GATA4-dependent reporter assays were done in IHH cells which were exposed to DMSO vehicle, compound 673 or K7174 (μM) in CSS medium for 48 hours.
# [3] = system: GATA; details: read-out: IC50 in reporter assay; cited from earlier work
# [4] = biological target: T2, human GATA2 (Homo sapiens, UniProt P23769); test: GATA2-dependent reporter assay in IHH cells; type: cell-based; details: GATA-Luc reporter, 48 h
# T2 construct: expressed in transfected cells; host or cells: IHH
# T2 sequence (P23769 1-480): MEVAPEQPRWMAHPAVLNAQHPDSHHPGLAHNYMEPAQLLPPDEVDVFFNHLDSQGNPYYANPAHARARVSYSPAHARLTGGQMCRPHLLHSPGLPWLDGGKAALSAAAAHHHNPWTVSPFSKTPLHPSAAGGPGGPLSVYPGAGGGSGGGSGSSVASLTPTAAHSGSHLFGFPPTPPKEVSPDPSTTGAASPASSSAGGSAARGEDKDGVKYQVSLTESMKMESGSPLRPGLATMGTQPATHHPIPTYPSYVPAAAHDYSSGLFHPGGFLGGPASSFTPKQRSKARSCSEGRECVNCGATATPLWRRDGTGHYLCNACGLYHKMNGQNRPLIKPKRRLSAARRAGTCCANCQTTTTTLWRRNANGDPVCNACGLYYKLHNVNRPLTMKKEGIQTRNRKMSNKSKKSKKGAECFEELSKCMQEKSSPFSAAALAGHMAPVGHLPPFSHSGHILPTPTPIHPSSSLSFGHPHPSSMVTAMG
# Procedure: K7174 is a known GATA2 inhibitor. The IHH cells were transiently transfected with empty vector (for the NT) or human GATA2-expressing plasmid as well as pRL-TK (internal control) and GATA-Luc reporter plasmids. Cells were exposed to DMSO vehicle or compounds for 48 h. Experiments were in triplicate.
# [5] = biological target: T3, recombinant protein of human GATA2 (Homo sapiens, UniProt P23769); test: SPR analysis on amine-coupled GATA2; type: binding
# T3 sequence (P23769 1-480): T2 sequence (P23769 1-480)
# From the text: In embodiments of the invention, the androgen-bound AR is regressing GATA2 expression and inhibition of AR via castration or use of antiandrogen releases such expression. […] Overexpression of GATA2 confers resistance to antiandrogen bicalutamide (Bic) (FIG. 2.9). Compound 673 is effective against the LNCaP stably transfected with GATA2-expressing plasmid (referred to as LNCaP-GATA2 cells) (FIG. 2.8).
# [6] = system: androgen receptor (AR) signaling in C4-2B prostate cancer cells; test: Western blot, AR signaling in C4-2B cells; type: cell-based
# [7] = system: GATA2 expression in C4-2B cells; test: Western blot, GATA2 expression in C4-2B cells; type: cell-based
# [8] = system: A549 KRAS-mutant NSCLC cells; test: MTT assay, A549; type: cell-based; details: 72 hours
# Procedure: (§1) FIG. 2.7 Compound 673 is cytotoxic in KRAS-mutant NSCLC cells (A549 and H23), but is not toxic the KRAS wild-type NSCLC cells (H322). Cells were exposed to vehicle or compounds (μM) for 72 hours. Viable cells were evaluated by MTT assays.
# [9] = system: H23 KRAS-mutant NSCLC cells; test: MTT assay, H23; type: cell-based; details: KRAS-mutant NSCLC, 72 hours
# Procedure: as §1
# Panc 10.05, H23 and HCT-116 cells express endogenous KRAS 12D, 12C and 13D mutants, respectively. Cells were exposed to DMSO vehicle or compounds at designated doses for 72 hours. Experiments were done in triplicate.
# [10] = system: H322 KRAS wild-type NSCLC cells; test: MTT assay, H322; type: cell-based; details: 72 hours
# Procedure: as §1
# [11] = system: fusion protein IRF3DBD-GATA2NTD; test: ISRE-luc reporter assay in PC3 cells, IRF3DBD-GATA2NTD; type: cell-based; details: 5 μM
# [12] = biological target: T4, wild-type IRF3 (Homo sapiens, UniProt Q14653); test: ISRE-luc reporter assay in PC3 cells, wild-type IRF3; type: cell-based; details: 5 μM
# T4 construct: host or cells: PC3
# T4 sequence (Q14653 whole entry, species assumed): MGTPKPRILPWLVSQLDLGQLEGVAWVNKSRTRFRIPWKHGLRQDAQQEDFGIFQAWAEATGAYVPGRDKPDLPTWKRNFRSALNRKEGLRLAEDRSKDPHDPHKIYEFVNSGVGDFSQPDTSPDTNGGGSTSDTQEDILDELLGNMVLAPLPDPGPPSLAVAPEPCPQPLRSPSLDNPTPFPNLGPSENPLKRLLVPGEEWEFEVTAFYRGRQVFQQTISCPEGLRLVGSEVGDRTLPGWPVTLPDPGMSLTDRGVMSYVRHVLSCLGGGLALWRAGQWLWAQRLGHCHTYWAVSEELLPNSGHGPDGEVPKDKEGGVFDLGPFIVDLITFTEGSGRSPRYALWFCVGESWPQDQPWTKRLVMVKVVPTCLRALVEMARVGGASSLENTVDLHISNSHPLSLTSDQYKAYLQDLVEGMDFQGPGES
# [13] = system: AR signaling in LNCaP-GATA2, HP-LNCaP, C4-2B and 22Rv1 cells; test: Western blot, AR signaling in LNCaP-GATA2 and CRPC cells; type: cell-based; details: LNCaP-GATA2 in FBS medium, 22Rv1 in CSS medium, 72 hours
# Procedure: FIG. 2.11 By breaking AR-GATA2 feedback loop, compound 673 suppresses the AR signaling in CRPC cells. […] Cells were exposed to DMSO vehicle, BIC, 673 or K7174 at designated doses (μM) for 72 hours.
# [14] = system: PSA-luc reporter in LNCaP-GATA2 cells; test: PSA-luc reporter assay in LNCaP-GATA2 cells, combination with bicalutamide; type: cell-based; details: equi-molar combination, 72 hours, FBS medium
# Procedure: (§2) (A) PSA-luc reporter assay in LNCaP-GATA2 cells, which were exposed to DMSO vehicle, BIC, 673, or equi-molar combination of Bic and 673 for 72 hours in FBS medium. RLU, relative luciferase unit; (B) BrdU Cell Proliferation Assay (Assay Kit #6813, Cell Signaling Tech.). LNCaP-GATA2 cells were exposed to DMSO vehicle, Bic, 673 or equi-molar combination of Bic and 673 for 48 hours. In the last 8 hours, 10 μM BrdU was added to the plate. **p<0.001, ***p<0.001 when compared with BIC at the same doses; #p<0.05, ##p<0.001 when compared with 673 at the same doses.
# [15] = system: LNCaP-GATA2 cells; test: BrdU cell proliferation assay in LNCaP-GATA2 cells, combination with bicalutamide; type: cell-based; details: equi-molar combination, 48 hours
# Procedure: as §2
# [16] = biological target: T5, human STING (hSTING) (Homo sapiens, UniProt Q86WV6); test: hSTING ISRE-luc reporter assay in 293T cells; type: cell-based; details: 24 hours
# T5 construct: expressed in transfected cells; host or cells: 293T
# T5 sequence (Q86WV6 whole entry H232R): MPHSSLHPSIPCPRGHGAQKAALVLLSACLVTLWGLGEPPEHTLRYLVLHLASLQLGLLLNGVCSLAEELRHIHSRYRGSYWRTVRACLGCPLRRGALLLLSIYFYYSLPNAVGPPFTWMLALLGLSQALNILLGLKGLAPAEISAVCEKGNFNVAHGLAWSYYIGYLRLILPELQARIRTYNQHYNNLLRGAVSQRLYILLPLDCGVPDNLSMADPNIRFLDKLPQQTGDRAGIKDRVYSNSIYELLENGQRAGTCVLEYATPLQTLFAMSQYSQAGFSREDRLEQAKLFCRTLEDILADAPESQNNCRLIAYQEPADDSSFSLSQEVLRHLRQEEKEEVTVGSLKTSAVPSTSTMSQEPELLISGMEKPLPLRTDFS
# Procedure: ISRE-luc (reporter), pRL-TK (internal control) and hSTING-expressing plasmids were transiently transfected into 293T cells. Cells were exposed to DMSO vehicle control or compounds for 24 hours. Experiments were done in triplicate.
# [17] = biological target: T6, ERG (Homo sapiens, UniProt P11308); test: ERG-dependent reporter assay in HEK293 cells; type: cell-based; design: expressed in transfected cells; host or cells: HEK293; details: PUx3-Luc reporter, 48 hours, designated doses
# T6 sequence (P11308 1-486 isoform P11308-3): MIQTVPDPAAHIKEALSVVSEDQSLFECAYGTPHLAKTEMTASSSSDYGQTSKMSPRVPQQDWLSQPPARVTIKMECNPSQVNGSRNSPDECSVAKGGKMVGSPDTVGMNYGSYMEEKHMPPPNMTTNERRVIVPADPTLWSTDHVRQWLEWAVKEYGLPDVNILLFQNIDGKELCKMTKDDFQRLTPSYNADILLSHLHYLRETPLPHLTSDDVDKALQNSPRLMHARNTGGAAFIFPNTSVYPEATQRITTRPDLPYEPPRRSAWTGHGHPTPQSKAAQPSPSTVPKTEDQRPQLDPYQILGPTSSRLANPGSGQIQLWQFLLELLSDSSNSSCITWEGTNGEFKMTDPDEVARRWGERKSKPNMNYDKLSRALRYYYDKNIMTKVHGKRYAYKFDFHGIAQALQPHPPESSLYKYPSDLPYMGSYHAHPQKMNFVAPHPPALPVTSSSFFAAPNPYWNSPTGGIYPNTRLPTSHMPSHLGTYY
# Procedure: HEK293 cells were transiently transfected with empty vector (for the NT) or ERG-expressing plasmid as well as pRL-TK (internal control) and PUx3-Luc reporter. Cells were then exposed to DMSO vehicle or compounds at designated doses for 48 hours. Experiments were done in triplicate.
# T1 sequence (P23771 whole entry): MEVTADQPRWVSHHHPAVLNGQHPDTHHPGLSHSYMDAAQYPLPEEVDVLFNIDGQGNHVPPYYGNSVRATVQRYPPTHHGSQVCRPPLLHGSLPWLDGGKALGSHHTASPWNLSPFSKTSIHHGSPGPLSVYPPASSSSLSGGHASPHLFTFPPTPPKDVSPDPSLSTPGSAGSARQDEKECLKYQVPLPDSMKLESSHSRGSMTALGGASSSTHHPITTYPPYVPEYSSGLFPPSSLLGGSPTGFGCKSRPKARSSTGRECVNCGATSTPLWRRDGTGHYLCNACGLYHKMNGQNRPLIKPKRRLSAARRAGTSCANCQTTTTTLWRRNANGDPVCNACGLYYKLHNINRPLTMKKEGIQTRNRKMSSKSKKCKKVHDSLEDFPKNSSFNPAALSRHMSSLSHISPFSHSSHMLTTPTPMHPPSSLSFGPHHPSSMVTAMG
Compound,activity against GATA3 in GATA3-dependent reporter assay ([1]; compounds at 5 μM),selectivity for GATA2 among GATA family members [2],IC50 [3] [µM],GATA2 inhibition in GATA2-dependent reporter assay [4],activity against GATA3 in GATA3-dependent reporter assay ([1]; 10 μM),"dose-dependent binding to amine-coupled GATA2 (SPR) ([5]; 0-50 μM, 2-fold dilution series)",binding to amine-coupled GATA2 (SPR) ([5]; 50 μM each),suppression of androgen receptor (AR) signaling (Western blot) [6],inhibition of GATA2 expression (Western blot) [7],cytotoxicity in A549 cells (MTT) [8],cytotoxicity in H23 cells (MTT) [9],cytotoxicity in H322 cells (MTT) [10],activity against fusion protein IRF3DBD-GATA2NTD (ISRE-luc) [11],activity against wild-type IRF3 (ISRE-luc) [12],suppression of AR signaling in LNCaP-GATA2 and CRPC cells (WB) [13],effect of combination with bicalutamide (BIC) in PSA-luc reporter assay [14],effect of combination with bicalutamide (BIC) in BrdU cell proliferation assay [15],activation of hSTING in ISRE-luc reporter assay [16],ERG inhibition in ERG-dependent reporter assay [17]
"COc1cc(/C=C/CCCN2CCCN(CCC/C=C/c3cc(OC)c(OC)c(OC)c3)CC2)cc(OC)c1OC [Compound K7174, K7174, reference compound]",active against GATA3,not selective,~15,,,,,,,,,,,,,,,,
Fc1cccc(-c2nc(CCCc3c[nH]c4ccccc34)oc2-c2cccc(F)c2)c1 [Compound 673],inactive against GATA3,selectively inhibits GATA2,,GATA2 inhibitors,inactive against GATA3,Specific and dose-dependent binding,Direct binding; also recorded: Specific binding,potently inhibits the AR signaling; also recorded: suppresses the androgen receptor (AR) signaling,inhibits GATA2 expression,cytotoxic,cytotoxic,not toxic,active,inactive,suppresses the AR signalling in CRPC cells; also recorded: effective in suppressing AR signaling,Synergistic effect,Synergistic effect,activate hSTING,ERG inhibitors
